Patent publication US20250084453A1, “SYSTEMS, COMPOSITIONS AND METHODS FOR IDENTIFYING E3 LIGASE SUBSTRATES BY UBIQUITIN BIOTINYLATION” (The Broad Institute, Inc., priority 2022, published 2025)

Key:
[1] = system: GSPT1; assay: GSPT1 degradation by Western blot in HEK293T cells and CRBN-/- derivatives; format: cell-based, human
Experimental: However, instead of assessing transiently-expressed V5-tagged IKZF1, an endogenous neo-substrate of CRBN, namely, GSPT1, was assessed. […] Following incubation with the components and added agents, the cells were lysed, and streptavidin-coated beads were used to capture from the cell lysate biotinylated, ubiquitinated proteins, e.g., the endogenous GSPT1 substrate. The biotinylated proteins eluted from the beads were subjected to Western blot analyses.

[2] = system: CRBN E3 ligase; assay: Mass spectrometry of streptavidin pulldown of biotinylated ubiquitinated proteins, CRBN-BirA 293T cells with Avi-Ub or A3-Ub; format: cell-based, human
Experimental: The cells were either treated or untreated with carfilzomib (0.4 μM) for 1 hour and were either treated or untreated with the CRBN-IMiD modifying agent CC-885 (1 μM) for another hour. […] As discussed above in Example 1, the GSPT1 substrate of BirA-tagged CRBN is expressed endogenously in 293T cells.
For such MS analyses, 50 μl of resuspended streptavidin beads were incubated with 1 ml of cell lysates (3 mg/ml) at 4° C. overnight. On the next day, the beads were pelleted (400×g, 1 minute), washed two times with 2% SDS (2% SDS, 25 mM Tris-HCl pH 7.5), and then washed three times with 6M urea (6M urea, 50 mM Tris-HCl pH 8). Each wash was performed by rotating the samples at room temperature for at least five minutes. Following the washes, the beads were resuspended in 90 μl of 2M urea, to which 10 μl of 0.1M TCEP (tris(2-carboxyethyl)phosphine, reducing agent) was added for a final concentration of 10 mM TCEP. The samples were agitated at 37° C. for 30 minutes to allow for protein reduction. Next, 10 μl of 0.165 M IAA, (iodoacetamide, alkylating agent) was added to a final concentration of 15 mM IAA. The samples were agitated in the dark at room temperature for 45 minutes. Thereafter, 1 μg of trypsin/LysC (Promega, Trypsin/Lys-C Mix, Mass Spec Grade, V5071) was added to each sample, and the samples were agitated for 3-4 hours at 37° C. Subsequently, 0.5 μg of trypsin/LysC (Promega, Trypsin/Lys-C Mix, Mass Spec Grade, V5071) was added to each sample, and the samples were agitated overnight at 37° C. On the next day, the supernatant containing the digested peptides was collected. The beads were washed two times with HPLC-grade water and were combined with the previously collected supernatant. Samples were centrifuged at 21,000×g for 10 minutes, and the clarified supernatant at the top was saved. Samples were acidified by the addition of 50% formic acid to a final concentration of 2%. Samples were vacuum dried (Speedvac) overnight and kept at −80° C. until ready for analysis by MS. […]
The preparation of cellular lysate was as described above for Cell Lysis, except that the RIPA buffer was supplemented with COMPLETE™ EDTA-free protease inhibitor cocktail (Roche; 04693159001; 1 tablet per 10 ml of buffer), benzonase (Millipore; E1014; 1 μl per 10 ml of buffer), 1.5 mM MgCl2, 1 mM EGTA, and 10 mM NEM (N-ethylmaleimide). For each sample, 1 ml of 3 mg/ml lysate was rotated overnight at 4° C. with 50 μl of resuspended streptavidin Sepharose beads (CYTIVA™; 17511301), which were pre-washed with RIPA lysis buffer 3 times. For all steps that required pelleting of beads, centrifugation was performed at 400×g for 1 minute. On the next day, streptavidin beads were pelleted, and the supernatant (a.k.a. flow-through) was either saved for analysis by Western blotting or was discarded.

[3] = Table 3 (head Avi-, text A3-Ub), DMSO 0
[4] = Table 3 (head Avi-, text A3-Ub), DMSO 3
[5] = Table 3 (head Avi-, text A3-Ub), DMSO 5
[6] = Table 3 (head Avi-, text A3-Ub), DMSO 6
[7] = Table 3 (head Avi-, text A3-Ub), DMSO 7
[8] = Table 3 (head Avi-, text A3-Ub), DMSO 9
[9] = Table 3 (head Avi-, text A3-Ub), DMSO 15

Cc1ccc(NC(=O)NCc2ccc3c(c2)CN(C2CCC(=O)NC2=O)C3=O)cc1Cl (stereo not shown) [CC-885]
GSPT1 degradation (Western blot, FIG. 5A) ([1]; 293T CRBN-/- CRBN-BirA cells with Avi-HA-Ub, 1 μM, 2 hours): degraded | GSPT1 degradation (Western blot) ([1]; 293T CRBN-/- cells expressing BirA-CRBN or CRBN-BirA, 1 μM, 4 hours): degraded | GSPT1 degradation (Western blot) ([1]; 293T CRBN-/- cells, 1 μM, 4 hours): not degraded | GSPT1 degradation (Western blot) ([1]; HEK293T cells, 10 nM, 100 nM, 1 μM or 10 μM for 3.5 hours): degraded in cells in a dose-dependent matter | Most upregulated proteins in streptavidin pulldown versus DMSO ([2]; A3-Ub, triplicates, log2 FC and p-value (limma), FIG. 9): GSPT1 and GSPT2 | # of PSMs, GSPT1 ([2]; Table 2, Avi-Ub, DMSO 0): 25 | # of PSMs, GSPT2 ([2]; Table 2, Avi-Ub, DMSO 0): 13 | # of PSMs, POLR2A ([2]; Table 2, Avi-Ub, DMSO 9): 11 | # of PSMs, PSMD4 ([2]; Table 2, Avi-Ub, DMSO 10): 11 | # of PSMs, VCL ([2]; Table 2, Avi-Ub, DMSO 10): 56 | # of PSMs, SMC1A ([2]; Table 2, Avi-Ub, DMSO 12): 13 | # of PSMs, H2AFV ([2]; Table 2, Avi-Ub, DMSO 14): 14 | # of PSMs, CTNNA1 ([2]; Table 2, Avi-Ub, DMSO 15): 12 | # of PSMs, gene symbol printed as image P00007 ([2]; Table 2, Avi-Ub, DMSO 16): 18 | # of PSMs, DYNC1H1 ([2]; Table 2, Avi-Ub, DMSO 17): 13 | # of PSMs, RPS3 ([2]; Table 2, Avi-Ub, DMSO 17): 21 | # of PSMs, HSPA1B; HSPA1A ([2]; Table 2, Avi-Ub, DMSO 18): 18 | # of PSMs, HIST2H2AC ([2]; Table 2, Avi-Ub, DMSO 19): 18 | # of PSMs, UBE2K ([2]; Table 2, Avi-Ub, DMSO 19): 17 | # of PSMs, CTNNB1 ([2]; Table 2, Avi-Ub, DMSO 20): 15 | # of PSMs, HSPA8 ([2]; Table 2, Avi-Ub, DMSO 20): 13 | # of PSMs, MCCC1 ([2]; Table 2, Avi-Ub, DMSO 20): 16 | # of PSMs, PRPF8 ([2]; Table 2, Avi-Ub, DMSO 20): 19 | # of PSMs, UBE2N ([2]; Table 2, Avi-Ub, DMSO 20): 14 | # of PSMs, VCP ([2]; Table 2, Avi-Ub, DMSO 20): 11 | # of PSMs, DSP ([2]; Table 2, Avi-Ub, DMSO 21): 14 | # of PSMs, gene symbol printed as image P00006 ([2]; Table 2, Avi-Ub, DMSO 21): 13 | # of PSMs, EEF2 ([2]; Table 2, Avi-Ub, DMSO 22): 13 | # of PSMs, HSP90AB1 ([2]; Table 2, Avi-Ub, DMSO 22): 15 | # of PSMs, gene symbol printed as image P00001 ([2]; Table 2, Avi-Ub, DMSO 22): 15 | # of PSMs, gene symbol printed as image P00003 ([2]; Table 2, Avi-Ub, DMSO 22): 14 | # of PSMs, AMOT ([2]; Table 2, Avi-Ub, DMSO 23): 19 | # of PSMs, HSP90AA1 ([2]; Table 2, Avi-Ub, DMSO 24): 13 | # of PSMs, PRKDC ([2]; Table 2, Avi-Ub, DMSO 24): 17 | # of PSMs, FASN ([2]; Table 2, Avi-Ub, DMSO 28): 17 | # of PSMs, USP9X ([2]; Table 2, Avi-Ub, DMSO 32): 21 | # of PSMs, UBA1 ([2]; Table 2, Avi-Ub, DMSO 34): 31 | # of PSMs, gene symbol printed as image P00004 ([2]; Table 2, Avi-Ub, DMSO 34): 30 | # of PSMs, gene symbol printed as image P00005 ([2]; Table 2, Avi-Ub, DMSO 36): 29 | # of PSMs, UBE2O ([2]; Table 2, Avi-Ub, DMSO 37): 23 | # of PSMs, UBA6 ([2]; Table 2, Avi-Ub, DMSO 39): 37 | # of PSMs, gene symbol printed as image P00002 ([2]; Table 2, Avi-Ub, DMSO 39): 33 | # of PSMs, PCCA ([2]; Table 2, Avi-Ub, DMSO 45): 41 | # of PSMs, ACACA ([2]; Table 2, Avi-Ub, DMSO 60): 52 | # of PSMs, PC ([2]; Table 2, Avi-Ub, DMSO 116): 104 | # of PSMs, ACACB [2, 3]: 17 | # of PSMs, GSPT1 [2, 3]: 30 | # of PSMs, GSPT2 [2, 3]: 20 | # of PSMs, HIST1H1D [2, 3]: 5 | # of PSMs, VCL [2, 3]: 9 | # of PSMs, CCDC144A [2, 4]: 10 | # of PSMs, DDX5 [2, 4]: 5 | # of PSMs, HIST2H2BF [2, 5]: 5 | # of PSMs, SPEN [2, 5]: 9 | # of PSMs, HIST2H2BE [2, 6]: 6 | # of PSMs, THAP5 [2, 6]: 7 | # of PSMs, gene symbol printed as image P00009 [2, 6]: 6 | # of PSMs, CCT8 [2, 7]: 14 | # of PSMs, EEF1A1 [2, 7]: 6 | # of PSMs, EEF2 [2, 7]: 5 | # of PSMs, ENO1 [2, 7]: 6 | # of PSMs, UBE2N [2, 7]: 6 | # of PSMs, HIST1H4A . . . [2, 8]: 9 | # of PSMs, HSP90AB1 [2, 8]: 9 | # of PSMs, gene symbol printed as image P00010 ([2]; Table 3 (head Avi-, text A3-Ub), DMSO 10): 11 | # of PSMs, HSP90AA1 ([2]; Table 3 (head Avi-, text A3-Ub), DMSO 14): 12 | # of PSMs, HSPA1B; HSPA1A [2, 9]: 6 | # of PSMs, HSPA8 [2, 9]: 10 | # of PSMs, gene symbol printed as image P00008 ([2]; Table 3 (head Avi-, text A3-Ub), DMSO 23): 17 | # of PSMs, MCCC1 ([2]; Table 3 (head Avi-, text A3-Ub), DMSO 26): 24 | # of PSMs, ACACA ([2]; Table 3 (head Avi-, text A3-Ub), DMSO 71): 75 | # of PSMs, PCCA ([2]; Table 3 (head Avi-, text A3-Ub), DMSO 106): 103 | # of PSMs, PC ([2]; Table 3 (head Avi-, text A3-Ub), DMSO 155): 167
